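48-hour exposure; five concentrations; linearly interpolated endpoints. GI50 = concentration required for 50% inhibition of growth. TGI denotes the concentration required for complete inhibition of growth.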
Legend:
Assay in all cases: NCI-60 cell line screen, 48 h; in the data active = GI50 below about 0.43 µM; inactive = the rest
T-47D breast = test system: T-47D breast
HOP-92 NSCLC = test system: HOP-92 NSCLC
HCT-116 colon = test system: HCT-116 colon
786-0 renal = test system: 786-0 renal
PC-3 prostate = test system: PC-3 prostate
U251 CNS = test system: U251 CNS
TK-10 renal = test system: TK-10 renal
MOLT-4 leukemia = test system: MOLT-4 leukemia
SNB-75 CNS = test system: SNB-75 CNS
HS 578T breast = test system: HS 578T breast
HL-60(TB) leukemia = test system: HL-60(TB) leukemia
ACHN renal = test system: ACHN renal
A549 NSCLC = test system: A549 NSCLC
NCI-H226 lung = test system: NCI-H226 lung
UO-31 renal = test system: UO-31 renal
OVCAR-8 ovarian = test system: OVCAR-8 ovarian
NCI-H522 lung = test system: NCI-H522 lung
MALME-3M melanoma = test system: MALME-3M melanoma
UACC-62 melanoma = test system: UACC-62 melanoma
SK-OV-3 ovarian = test system: SK-OV-3 ovarian
SNB-19 CNS = test system: SNB-19 CNS
NCI-H460 lung = test system: NCI-H460 lung
LOX IMVI melanoma = test system: LOX IMVI melanoma
NCI/ADR-RES ovarian = test system: NCI/ADR-RES ovarian
OVCAR-5 ovarian = test system: OVCAR-5 ovarian
UACC-257 melanoma = test system: UACC-257 melanoma
DU-145 prostate = test system: DU-145 prostate
BT-549 breast = test system: BT-549 breast
RPMI-8226 leukemia = test system: RPMI-8226 leukemia
SW-620 colon = test system: SW-620 colon
SF-295 CNS = test system: SF-295 CNS
RXF 393 renal = test system: RXF 393 renal
SF-268 CNS = test system: SF-268 CNS
MDA-MB-231 breast = test system: MDA-MB-231 breast
COLO 205 colon = test system: COLO 205 colon
IGROV1 ovarian = test system: IGROV1 ovarian
SN12C renal = test system: SN12C renal
SF-539 CNS = test system: SF-539 CNS
HCC-2998 colon = test system: HCC-2998 colon
CAKI-1 renal = test system: CAKI-1 renal
A498 renal = test system: A498 renal
KM12 colon = test system: KM12 colon
M14 melanoma = test system: M14 melanoma
HCT-15 colon = test system: HCT-15 colon
OVCAR-4 ovarian = test system: OVCAR-4 ovarian
HT29 colon = test system: HT29 colon
MDA-MB-435 = test system: MDA-MB-435
CCRF-CEM leukemia = test system: CCRF-CEM leukemia
MCF7 breast = test system: MCF7 breast
SR leukemia = test system: SR leukemia
SK-MEL-2 melanoma = test system: SK-MEL-2 melanoma
SK-MEL-5 melanoma = test system: SK-MEL-5 melanoma
SK-MEL-28 melanoma = test system: SK-MEL-28 melanoma
K-562 leukemia = test system: K-562 leukemia
HOP-62 NSCLC = test system: HOP-62 NSCLC
NCI-H23 lung = test system: NCI-H23 lung
OVCAR-3 ovarian = test system: OVCAR-3 ovarian

C/C(=C1\SC(=NCc2cccs2)NC1=O)c1ccc2ncccc2c1
> 21.7 µM: TGI (SR leukemia)
> 23.3 µM: TGI (SNB-75 CNS)
inactive: GI50 (T-47D breast) 15.1 µM | GI50 (HOP-92 NSCLC) 7.08 µM | GI50 (HCT-116 colon) 11 µM | GI50 (786-0 renal) > 23.1 µM | GI50 (PC-3 prostate) 12.7 µM | GI50 (U251 CNS) 11.7 µM | GI50 (TK-10 renal) > 25 µM | GI50 (MOLT-4 leukemia) 9.56 µM | GI50 (SNB-75 CNS) 3.93 µM | GI50 (HS 578T breast) 9.15 µM | GI50 (HL-60(TB) leukemia) 9.36 µM | GI50 (ACHN renal) 18.7 µM | GI50 (A549 NSCLC) 12.2 µM | GI50 (NCI-H226 lung) 21.5 µM | GI50 (UO-31 renal) 10.1 µM | GI50 (OVCAR-8 ovarian) 14.7 µM | GI50 (NCI-H522 lung) 8.56 µM | GI50 (MALME-3M melanoma) > 25 µM | GI50 (UACC-62 melanoma) > 19.3 µM | GI50 (SK-OV-3 ovarian) > 25 µM | GI50 (SNB-19 CNS) 13.6 µM | GI50 (NCI-H460 lung) 9.27 µM | GI50 (LOX IMVI melanoma) 13.8 µM | GI50 (NCI/ADR-RES ovarian) 20.1 µM | GI50 (OVCAR-5 ovarian) > 25 µM | GI50 (UACC-257 melanoma) > 25 µM | GI50 (DU-145 prostate) > 25 µM | GI50 (BT-549 breast) > 25 µM | GI50 (RPMI-8226 leukemia) 13 µM | GI50 (SW-620 colon) 10.1 µM | GI50 (SF-295 CNS) 11.4 µM | GI50 (RXF 393 renal) > 25 µM | GI50 (SF-268 CNS) 18 µM | GI50 (MDA-MB-231 breast) 7.24 µM | GI50 (COLO 205 colon) 12.4 µM | GI50 (IGROV1 ovarian) > 25 µM | GI50 (SN12C renal) 12.6 µM | GI50 (SF-539 CNS) 9.5 µM | GI50 (HCC-2998 colon) > 25 µM | GI50 (CAKI-1 renal) 11.1 µM | GI50 (A498 renal) 13.5 µM | GI50 (KM12 colon) 13.1 µM | GI50 (M14 melanoma) 13.9 µM | GI50 (HCT-15 colon) 10.9 µM | GI50 (OVCAR-4 ovarian) 18.1 µM | GI50 (HT29 colon) 10.9 µM | GI50 (MDA-MB-435) 7.55 µM | GI50 (CCRF-CEM leukemia) 10.2 µM | GI50 (MCF7 breast) 11.7 µM | GI50 (SR leukemia) 7.06 µM | GI50 (SK-MEL-2 melanoma) > 25 µM | GI50 (SK-MEL-5 melanoma) 8.21 µM | GI50 (SK-MEL-28 melanoma) > 25 µM | GI50 (K-562 leukemia) 8.71 µM | GI50 (HOP-62 NSCLC) 21.8 µM | GI50 (NCI-H23 lung) 22.2 µM | GI50 (OVCAR-3 ovarian) 18.1 µM
> 25 µM: TGI (T-47D breast) | TGI (HOP-92 NSCLC) | TGI (HCT-116 colon) | TGI (786-0 renal) | TGI (PC-3 prostate) | TGI (U251 CNS) | TGI (TK-10 renal) | TGI (MOLT-4 leukemia) | TGI (HS 578T breast) | TGI (HL-60(TB) leukemia) | TGI (ACHN renal) | TGI (A549 NSCLC) | TGI (NCI-H226 lung) | TGI (UO-31 renal) | TGI (OVCAR-8 ovarian) | TGI (NCI-H522 lung) | TGI (MALME-3M melanoma) | TGI (UACC-62 melanoma) | TGI (SK-OV-3 ovarian) | TGI (SNB-19 CNS) | TGI (NCI-H460 lung) | TGI (LOX IMVI melanoma) | TGI (NCI/ADR-RES ovarian) | TGI (OVCAR-5 ovarian) | TGI (UACC-257 melanoma) | TGI (DU-145 prostate) | TGI (BT-549 breast) | TGI (RPMI-8226 leukemia) | TGI (SW-620 colon) | TGI (SF-295 CNS) | TGI (RXF 393 renal) | TGI (SF-268 CNS) | TGI (MDA-MB-231 breast) | TGI (COLO 205 colon) | TGI (IGROV1 ovarian) | TGI (SN12C renal) | TGI (SF-539 CNS) | TGI (HCC-2998 colon) | TGI (CAKI-1 renal) | TGI (A498 renal) | TGI (KM12 colon) | TGI (M14 melanoma) | TGI (HCT-15 colon) | TGI (OVCAR-4 ovarian) | TGI (HT29 colon) | TGI (MDA-MB-435) | TGI (CCRF-CEM leukemia) | TGI (MCF7 breast) | TGI (SK-MEL-2 melanoma) | TGI (SK-MEL-5 melanoma) | TGI (SK-MEL-28 melanoma) | TGI (K-562 leukemia) | TGI (HOP-62 NSCLC) | TGI (NCI-H23 lung) | TGI (OVCAR-3 ovarian)

O=C1NC(=NCc2ccccc2Br)S/C1=C\c1ccc2ncccc2c1
> 18.6 µM: TGI (SK-OV-3 ovarian)
19 µM: TGI (SK-MEL-2 melanoma)
24.5 µM: TGI (T-47D breast)
24.4 µM: TGI (HS 578T breast)
> 22.3 µM: TGI (BT-549 breast)
16.5 µM: TGI (NCI-H522 lung)
> 21.4 µM: TGI (A498 renal)
> 22 µM: TGI (UO-31 renal)
> 23.4 µM: TGI (HL-60(TB) leukemia)
> 17.5 µM: TGI (HOP-62 NSCLC)
8.39 µM: TGI (SR leukemia)
> 23.3 µM: TGI (HOP-92 NSCLC)
inactive: GI50 (T-47D breast) 6.78 µM | GI50 (HOP-92 NSCLC) 6.89 µM | GI50 (HCT-116 colon) 2.74 µM | GI50 (786-0 renal) 9.43 µM | GI50 (PC-3 prostate) 15.2 µM | GI50 (U251 CNS) 4.77 µM | GI50 (TK-10 renal) 14.8 µM | GI50 (MOLT-4 leukemia) 10 µM | GI50 (SNB-75 CNS) 3.82 µM | GI50 (HS 578T breast) 6.28 µM | GI50 (HL-60(TB) leukemia) 7.96 µM | GI50 (ACHN renal) 10.6 µM | GI50 (A549 NSCLC) 5.99 µM | GI50 (NCI-H226 lung) 8.06 µM | GI50 (UO-31 renal) 8.08 µM | GI50 (OVCAR-8 ovarian) 9.14 µM | GI50 (NCI-H522 lung) 6.22 µM | GI50 (MALME-3M melanoma) > 15.3 µM | GI50 (UACC-62 melanoma) 11.8 µM | GI50 (SK-OV-3 ovarian) 8.11 µM | GI50 (SNB-19 CNS) 9.4 µM | GI50 (NCI-H460 lung) 6.1 µM | GI50 (LOX IMVI melanoma) 4.7 µM | GI50 (NCI/ADR-RES ovarian) 11.9 µM | GI50 (OVCAR-5 ovarian) > 25 µM | GI50 (UACC-257 melanoma) 17.8 µM | GI50 (DU-145 prostate) 8.69 µM | GI50 (BT-549 breast) 6.32 µM | GI50 (RPMI-8226 leukemia) 8.74 µM | GI50 (SW-620 colon) 6.71 µM | GI50 (SF-295 CNS) 8.03 µM | GI50 (RXF 393 renal) 8.07 µM | GI50 (SF-268 CNS) 7.83 µM | GI50 (MDA-MB-231 breast) 15 µM | GI50 (COLO 205 colon) 5.4 µM | GI50 (IGROV1 ovarian) 7.68 µM | GI50 (SN12C renal) 9.31 µM | GI50 (SF-539 CNS) 5.84 µM | GI50 (HCC-2998 colon) 24.3 µM | GI50 (CAKI-1 renal) 7.18 µM | GI50 (A498 renal) 5.55 µM | GI50 (KM12 colon) 10.6 µM | GI50 (M14 melanoma) 11.1 µM | GI50 (HCT-15 colon) 4.36 µM | GI50 (OVCAR-4 ovarian) 7.35 µM | GI50 (HT29 colon) 10.7 µM | GI50 (MDA-MB-435) 5.62 µM | GI50 (CCRF-CEM leukemia) 7.26 µM | GI50 (MCF7 breast) 4.07 µM | GI50 (SR leukemia) 1.03 µM | GI50 (SK-MEL-2 melanoma) 7.66 µM | GI50 (SK-MEL-5 melanoma) 10.4 µM | GI50 (SK-MEL-28 melanoma) > 20.5 µM | GI50 (K-562 leukemia) 8.19 µM | GI50 (HOP-62 NSCLC) 5.93 µM | GI50 (NCI-H23 lung) 11.5 µM | GI50 (OVCAR-3 ovarian) 10 µM
> 21.2 µM: TGI (IGROV1 ovarian)
> 25 µM: TGI (HCT-116 colon) | TGI (786-0 renal) | TGI (PC-3 prostate) | TGI (U251 CNS) | TGI (TK-10 renal) | TGI (MOLT-4 leukemia) | TGI (ACHN renal) | TGI (A549 NSCLC) | TGI (NCI-H226 lung) | TGI (OVCAR-8 ovarian) | TGI (MALME-3M melanoma) | TGI (UACC-62 melanoma) | TGI (SNB-19 CNS) | TGI (NCI-H460 lung) | TGI (LOX IMVI melanoma) | TGI (NCI/ADR-RES ovarian) | TGI (OVCAR-5 ovarian) | TGI (UACC-257 melanoma) | TGI (DU-145 prostate) | TGI (RPMI-8226 leukemia) | TGI (SW-620 colon) | TGI (SF-295 CNS) | TGI (RXF 393 renal) | TGI (SF-268 CNS) | TGI (MDA-MB-231 breast) | TGI (COLO 205 colon) | TGI (SN12C renal) | TGI (SF-539 CNS) | TGI (HCC-2998 colon) | TGI (CAKI-1 renal) | TGI (KM12 colon) | TGI (M14 melanoma) | TGI (HCT-15 colon) | TGI (OVCAR-4 ovarian) | TGI (HT29 colon) | TGI (MDA-MB-435) | TGI (CCRF-CEM leukemia) | TGI (MCF7 breast) | TGI (SK-MEL-5 melanoma) | TGI (SK-MEL-28 melanoma) | TGI (K-562 leukemia) | TGI (NCI-H23 lung) | TGI (OVCAR-3 ovarian)
> 23.7 µM: TGI (SNB-75 CNS)

Reference: PubChem BioAssay (NCI)
